This is an account of results in paper PMC6934184, “Selective DNA-PKcs inhibition extends the therapeutic index of localized radiotherapy and chemotherapy” (The Journal of Clinical Investigation, 2019).

The experiment deals with T1, INSR (Homo sapiens, UniProt P06213).
T1 construct: purchased Thermo Fisher Scientific (Life Technologies) SelectScreen
In words: SelectScreen Z'LYTE. Type of experiment: biochemical. In short, it runs like this: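 NU5455 was profiled across the SelectScreen Broad panel of kinase activity and binding assays. Z'LYTE reactions such as CSF1R ran at apparent Km ATP, while the Adapta CAMK1 assay used ATP listed as 10. Values are given as percent.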

T1 sequence (P06213 28-1382): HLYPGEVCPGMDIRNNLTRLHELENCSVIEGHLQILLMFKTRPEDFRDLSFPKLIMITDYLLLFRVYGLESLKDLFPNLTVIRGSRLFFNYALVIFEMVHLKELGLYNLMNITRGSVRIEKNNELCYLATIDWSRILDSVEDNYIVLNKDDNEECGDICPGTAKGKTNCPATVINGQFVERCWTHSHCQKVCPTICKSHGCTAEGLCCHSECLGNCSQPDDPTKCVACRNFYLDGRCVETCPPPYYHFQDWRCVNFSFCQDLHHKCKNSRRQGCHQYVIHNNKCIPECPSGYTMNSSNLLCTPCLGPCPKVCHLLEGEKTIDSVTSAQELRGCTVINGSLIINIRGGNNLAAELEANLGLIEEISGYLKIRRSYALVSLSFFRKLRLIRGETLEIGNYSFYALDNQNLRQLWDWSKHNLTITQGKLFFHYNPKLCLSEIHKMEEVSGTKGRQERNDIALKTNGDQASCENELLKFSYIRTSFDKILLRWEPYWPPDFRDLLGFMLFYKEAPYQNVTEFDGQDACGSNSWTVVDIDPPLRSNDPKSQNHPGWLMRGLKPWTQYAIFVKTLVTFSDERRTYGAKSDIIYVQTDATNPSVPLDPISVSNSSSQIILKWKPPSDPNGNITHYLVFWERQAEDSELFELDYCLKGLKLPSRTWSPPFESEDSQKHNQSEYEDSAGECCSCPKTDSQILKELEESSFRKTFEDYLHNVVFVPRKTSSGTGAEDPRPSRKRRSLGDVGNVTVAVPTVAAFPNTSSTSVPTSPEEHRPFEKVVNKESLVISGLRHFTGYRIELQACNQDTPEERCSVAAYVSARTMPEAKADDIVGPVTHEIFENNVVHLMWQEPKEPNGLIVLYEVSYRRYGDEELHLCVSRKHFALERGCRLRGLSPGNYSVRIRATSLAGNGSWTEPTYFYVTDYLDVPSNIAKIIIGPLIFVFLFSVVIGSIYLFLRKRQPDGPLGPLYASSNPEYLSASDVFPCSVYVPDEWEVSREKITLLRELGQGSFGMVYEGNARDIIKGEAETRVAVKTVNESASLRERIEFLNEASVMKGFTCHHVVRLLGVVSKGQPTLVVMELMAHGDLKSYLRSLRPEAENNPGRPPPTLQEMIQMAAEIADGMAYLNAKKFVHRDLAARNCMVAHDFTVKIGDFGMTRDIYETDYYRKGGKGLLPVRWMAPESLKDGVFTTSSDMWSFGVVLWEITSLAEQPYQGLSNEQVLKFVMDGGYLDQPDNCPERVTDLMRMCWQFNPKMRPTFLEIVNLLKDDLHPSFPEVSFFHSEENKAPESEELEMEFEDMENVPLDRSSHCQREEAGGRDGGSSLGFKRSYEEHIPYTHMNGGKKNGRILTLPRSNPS

Take `CN(C(=O)CN1CCOCC1)c1ccc2sc3c(-c4cccc5c(=O)cc(N6CC7CCC(C6)O7)oc45)cccc3c2c1` [NU5455]: testing at 1 µM gave an inhibition of 4.1%.
